# Like-named read-outs stand apart in the source and are kept apart here.
# Legend:
# Abl (T315I) = Abl (T315I) (Homo sapiens, UniProt P00519, T315I); test: Biochemical kinase assay, gatekeeper mutant Abl
# From the text: (§1) Conventional biochemical kinase assays, using radioactivity and fluorescence as readouts, were used to derive half maximal-inhibitory concentrations (IC50) values.
# Abl (M351T) = Abl (M351T) (Homo sapiens, UniProt P00519, M351T); test: Biochemical kinase assay, mutant Abl
# From the text: as §1
# Abl (Q252H) = Abl (Q252H) (Homo sapiens, UniProt P00519, Q252H); test: Biochemical kinase assay, mutant Abl
# From the text: as §1
# Abl (Y253F) = Abl (Y253F) (Homo sapiens, UniProt P00519, Y253F); test: Biochemical kinase assay, mutant Abl
# From the text: as §1
# [1] = Plasma pharmacokinetics, 7 once-daily oral doses, healthy volunteers; assay type: in vivo, human; details: for Cmax / Tmax / AUC(0-t): male, human, plasma, oral
# Experimental: After 28 days of screening, the subjects were studied in sequential cohorts of 6 subjects each. The study was conducted for 17 days. […] After the dose, subjects continued to fast for additional 4 hours, water was allowed ad libitum with the exception of 1 hour prior and 1-hour post dose.
# The plasma and CSF samples were analyzed, by validated LC/MS-MS methods. PK analysis was conducted based on PK/PP Population: Cmax, AUC0-t, AUC0-24, AUC0-∞, Tmax, Cavg, CL/F, Cmin, t1/2, Kel, Vd (V/F; Vd/F), and Vss/F. Model-independent plasma PK parameters (Cmax, Tmax, t1/2, AUC0-t, AUC0-24, AUC0-∞, Cavg, CL/F, Vss/F, Vd/F), after the first dose (Day 1) and last dose (Day 7), Cmin on Days 2-7) was listed by subject and summarized by study cohort. In addition to the descriptive statistics listed above, geometric means was reported for the pivotal PK endpoints (CL/F, Vss/F, Vd/F, Cmin, Cavg, AUC0-t, AUC0-24, AUC0-∞, and Cmax). For CSF, PK parameters (Cmax, Tmax, t1/2, AUC0-t, AUC0-24, Cmin, Cavg, CL/F, Vss/F) was listed by subject and summarized by cohort. Ratios of CSF: plasma concentration at each time point was listed by subject and summarized by study cohort.
# Forty-one healthy adult male volunteers aged 18 to 45 with body mass indexes (BMI)≥18 to ≤30 Kg/m^2 and total body weight >50 kg (110 lb) were screened in order to enroll 19 subjects with an average age of 34.2 years (range 21.5-45.6 years) into this study Six participants were randomly assigned to the 48 and 192 mg cohorts, and seven participants were assigned to the 384 mg cohort. After an overnight fast, participants received once daily doses of vodobatinib as capsules for 7 days. Serial PK blood samples to measure vodobatinib plasma concentrations were collected at pre-dose and at 0.25, 0.5, 1, 1.5, 2, 2.5, 3, 4, 6, 8, 12, 16 and 24 h post-dose after the first dose on Day 1 and the last dose on day 7. Additional PK samples prior to the morning doses were taken on Days 3-6. On the morning of Day 7, prior to dosing, an indwelling intrathecal catheter was inserted in the lumbar region (L3-L5). Serial CSF samples were collected through the catheter connected via peristaltic pump to a fraction collector. At each designated CSF collection time point, 8 mL of CSF was collected at a flow rate of 0.5 mL/min over a 16-min period at pre-dose, and 0.5, 1.0, 1.5, 2, 2.5, 3, 4, 6, 8, 12 and 24 h post-dose. The first 2 mL of CSF was discarded, and the remaining 6 mL was used for the vodobatinib assay. The occurrence of treatment-emergent adverse events (TEAEs) and serious AEs (SAEs) reported through the completion of study were collected.
# [2] = 48 mg, Day 7, plasma, healthy volunteers
# [3] = 192 mg, Day 1, plasma, healthy volunteers
# [4] = 192 mg, Day 7, plasma, healthy volunteers
# [5] = 384 mg, Day 1, plasma, healthy volunteers
# [6] = 384 mg, Day 7, plasma, healthy volunteers
smiles,measurement,setting,value
Cc1ccc(C(=O)NNC(=O)c2c(C)cccc2Cl)cc1C#Cc1cnc2ccccc2c1 [N′-(2-chloro-6-methylbenzoyl)-4-methyl-3-[2-(3-quinolyl)ethynyl]-benzohydrazide],IC50,Abl (T315I),8000 pM
same,IC50,Abl (M351T),800 pM
same,IC50,Abl (Q252H),800 pM
same,IC50,Abl (Y253F),1000 pM
same,AUC0-24 GM,"[1]; 48 mg, Day 1, plasma, healthy volunteers",8691.6 ng·h/mL
same,AUC0-24 GM,[1]; [2],10346.9 ng·h/mL
same,Cmax GM,[1]; [2],1241.4 ng/mL
same,AUC0-24 GM,[1]; [3],33425.8 ng·h/mL
same,Cmax GM,[1]; [3],3550.7 ng/mL
same,AUC0-24 GM,[1]; [4],39138.2 ng·h/mL
same,Cmax GM,[1]; [4],5020.9 ng/mL
same,AUC0-24 GM,[1]; [5],35536.5 ng·h/mL
same,Cmax GM,[1]; [5],5387.1 ng/mL
same,AUC0-24 GM,[1]; [6],42124.5 ng·h/mL
same,Cmax GM,[1]; [6],6648.7 ng/mL
same,time within which peak plasma concentrations (Cmax) achieved,"[1]; Day 1, across 48-384 mg cohorts",2.8 to 4.0 h
same,Cmax,"[1]; 48 mg, Day 1, plasma, Healthy Subjects, Table 10, read-out: Cmax Mean",1380 ng/mL
same,Tmax,"[1]; 48 mg, Day 1, plasma, Healthy Subjects, Table 10, read-out: Tmax median",2.8 h
same,AUC(0-t),"[1]; 48 mg, Day 1, plasma, Healthy Subjects, read-out: AUC0-24 Mean",8870 ng·h/mL
same,AUC(0-t),"[1]; 48 mg, Day 1, plasma, healthy volunteers, read-out: AUC0-24 AM",8870 ng·h/mL
same,AUC(0-t),"[1]; 48 mg, Day 1, plasma, healthy volunteers, read-out: AUC0-24 GM",8690 ng·h/mL
same,AUC(0-t),"[1]; 48 mg, Day 1, plasma, healthy volunteers, read-out: AUC0-24 Median",8880 ng·h/mL
same,AUC(0-t),"[1]; 48 mg, Day 1, plasma, healthy volunteers, read-out: AUC0-24 Min, Max",5850 to 10800 ng·h/mL
same,Cmax,"[1]; 48 mg, Day 1, plasma, healthy volunteers, read-out: Cmax AM",1380 ng/mL
same,Cmax,"[1]; 48 mg, Day 1, plasma, healthy volunteers, read-out: Cmax GM",1330 ng/mL
same,Cmax,"[1]; 48 mg, Day 1, plasma, healthy volunteers, read-out: Cmax Median",1220 ng/mL
same,Cmax,"[1]; 48 mg, Day 1, plasma, healthy volunteers, read-out: Cmax Min, Max",1010 to 2000 ng/mL
same,Tmax,"[1]; 48 mg, Day 1, plasma, healthy volunteers, read-out: Tmax Median",2.8 h
same,Tmax,"[1]; 48 mg, Day 1, plasma, healthy volunteers, read-out: Tmax Min, Max",1.5 to 4 h
same,Cmax,"[1]; 48 mg, Day 7, plasma, Healthy Subjects, Table 10, read-out: Cmax Mean",1400 ng/mL
same,Tmax,"[1]; 48 mg, Day 7, plasma, Healthy Subjects, Table 10, read-out: Tmax median (range)",4 h
same,AUC(0-t),"[1]; 48 mg, Day 7, plasma, Healthy Subjects, read-out: AUC0-24 Mean",12900 ng·h/mL
same,AUC(0-t),"[1]; 48 mg, Day 7, plasma, healthy volunteers, read-out: AUC0-24 AM",12900 ng·h/mL
same,AUC(0-t),"[1]; 48 mg, Day 7, plasma, healthy volunteers, read-out: AUC0-24 GM",10300 ng·h/mL
same,AUC(0-t),"[1]; 48 mg, Day 7, plasma, healthy volunteers, read-out: AUC0-24 Median",11000 ng·h/mL
same,AUC(0-t),"[1]; 48 mg, Day 7, plasma, healthy volunteers, read-out: AUC0-24 Min, Max",2970 to 29000 ng·h/mL
same,Cmax,"[1]; 48 mg, Day 7, plasma, healthy volunteers, read-out: Cmax AM",1400 ng/mL
same,Cmax,"[1]; 48 mg, Day 7, plasma, healthy volunteers, read-out: Cmax GM",1240 ng/mL
same,Cmax,"[1]; 48 mg, Day 7, plasma, healthy volunteers, read-out: Cmax Median",1340 ng/mL
same,Cmax,"[1]; 48 mg, Day 7, plasma, healthy volunteers, read-out: Cmax Min, Max",421 to 2380 ng/mL
same,Tmax,"[1]; 48 mg, Day 7, plasma, healthy volunteers, read-out: Tmax Median",4 h
same,Tmax,"[1]; 48 mg, Day 7, plasma, healthy volunteers, read-out: Tmax Min, Max",1.5 to 12 h
same,Cmax,"[1]; 192 mg, Day 1, plasma, Healthy Subjects, Table 10, read-out: Cmax Mean",3780 ng/mL
same,Tmax,"[1]; 192 mg, Day 1, plasma, Healthy Subjects, Table 10, read-out: Tmax median",3.5 h
same,AUC(0-t),"[1]; 192 mg, Day 1, plasma, Healthy Subjects, read-out: AUC0-24 Mean",34500 ng·h/mL
same,AUC(0-t),"[1]; 192 mg, Day 1, plasma, healthy volunteers, read-out: AUC0-24 AM",34500 ng·h/mL
same,AUC(0-t),"[1]; 192 mg, Day 1, plasma, healthy volunteers, read-out: AUC0-24 GM",33400 ng·h/mL

# Source: patent US20250275953A1, “VODOBATINIB FOR REDUCING PROGRESSION OF PARKINSON'S DISEASE” (Sun Pharma Advanced Research Company Ltd., priority 2022, published 2025)
